In data set [1] the target is T1, DAT (Rattus norvegicus (Rat), UniProt P23977). In words: [3H]Dopamine uptake inhibition in rat brain synaptosomes. It counts as biochemical. The following applies: DA. How it is done: (§1) Materials used were: Neurotransmitters [3H]5-HT (PerkinElmer, NET498001MC) [^3H]Dopamine (PerkinElmer, NET673250UC) [^3H]Norepinephrine (PerkinElmer, NET377250UC); Test Compounds Racemic methylone HCl (Merck, M-140); (R)-methylone HCl (Pisgah Labs); (S)-methylone HCl (Pisgah Labs); Reference Compounds Citalopram (Tocris Bioscience 1427). JHW007 (Tocris Bioscience 4351). Nomifensine (Abcam ab146004).
(§2) Synaptosomes were prepared from Sprague Dawley (200-250 g) rat brain regions (hippocampus for NE, striatum for DA and midbrain for 5-HT) using standard protocols. Tissues were dissected, added to sucrose buffer (0.32 M), homogenized with a dounce-homogenizer and centrifuged at 100×g to remove cells and debris. Supernatant was collected and centrifuged 17,000×g for 10 minutes at 4° C. to pellet the synaptosomes. The pellet was resuspended in fresh assay buffer.
(§3) Uptake assays were carried out in 96-well plates in a final volume of 250 μL per well. To each well was added 150 μL synaptosomes, 50 μL test, non-specific compound or buffer alone. The plate was incubated at 30° C. for 30 minutes with gentle agitation. 50 μL radiolabeled neurotransmitter in buffer was then added to each well to initiate the uptake. The plate was incubated at 30° C. for a further 5 minutes with gentle agitation. The incubation was stopped by vacuum filtration onto presoaked GF/C filters using a 96-well FilterMate™ harvester, followed by 3 washes with ice-cold wash buffer. Filters were then dried under a warm air stream, sealed in polyethylene, scintillation cocktail added, and the radioactivity counted in a Wallac® TriLux 1450 MicroBeta counter.
(§4) For each concentration of drug, non-specific uptake was subtracted from total uptake to give specific uptake. Data was fitted using the non-linear curve fitting routines in Prism® (Graphpad Software Inc) to determine IC50.

Data set [2] relates to rat forced swim test (FST). Kind of data set: Rat forced swim test (FST). It counts as in vivo. The following applies: 10 mg/kg, IP. The method, then:
All FST studies are performed and scored by an experimenter blind to treatment group and according to standard protocols. Briefly, rats are placed in a circular plexiglass container filled with water. Water temperature is maintained at 22-25° C. and changed for every animal. Day 1 (Training) consists of a 15 min acclimation trial, and Day 2 (Testing, 24 h later) consists of the 5 min test. A time sampling procedure is employed where animals are observed every 5 seconds for the duration of the test session (60 counts or 5 minutes) and scored for immobility (defined as the failure to struggle), swimming (defined as a circular movement around the tank), or climbing (defined as an upwards escape behavior). Data are expressed as the percent of the testing session (e.g., the number of immobility counts divided by 60). A p-value less than 0.05 indicates statistical significance after typical statistical analyses (e.g., unpaired t-test or ANOVA).
To determine that the prodrug and/or enantiomer has an antidepressant-like effect and to compare it to methylone, rats are treated with each compound 30 min prior to testing. Additional tests are run 24, 72, 168 hours post-dose or longer.
Racemic methylone (10 mg/kg, IP) has a maximal antidepressant-like effect in the rat forced swim test (FST), reducing immobility by nearly 100% compared to vehicle treated controls. To determine whether one enantiomer of methylone could mimic the robust antidepressant-like effect of racemic methylone, rats were treated with a single dose of racemic methylone, (R)-methylone, (S)-methylone (all 10 mg/kg, IP) or vehicle 30 min before testing in the FST. […] Therefore, all of the activity of methylone appears to be driven by the activity of one enantiomer ((S)-methylone).

Data set [3] addresses T2, SERT (Rattus norvegicus (Rat), UniProt P31652). Kind of data set: 5-HT release study. The format is biochemical.
Data set [4] has as its target T1, DAT. In words: DA release study. It counts as biochemical.
The next data set deals with cardiac ion channels. In words: In vitro cardiovascular safety screening test (ion channel panel, overall). As to conditions: whole panel. The format is cell-based, human. The method, then: An in vitro cardiovascular safety screening test was run to investigate the effects of racemic methylone and two methylone stereoisomers ((R)-methylone and (S)-methylone) on selected ion channels critically linked to cardiovascular function and activity.
Electrophysiological assays were conducted to profile three compounds ((R)-methylone, (S)-methylone, or racemic methylone) for activities on the ion channel targets specified below using the Qube electrophysiological platform. Where presented, IC50 values were determined by a non-linear, least squares regression analysis. Reference standards were run as an integral part of each assay to ensure the validity of the results obtained.
Ion Channels tested were Eurofins Panel Part Number: CPROFullQB2DR Voltage-Gated Sodium: HEK-Nav1.5 (Peak), HEK-Nav1.5 (Late, Antagonist) Voltage-Gated Potassium: HEK-Kv4.3/KChIP2, CHO-hERG, CHO-KCNQ1/minK Voltage-Gated Calcium: HEK-Cav1.2 Inward-Rectifying Voltage-Gated Potassium: HEK-Kir2.1.

Data set [5] concerns NET. Kind of data set: NE release study. It counts as biochemical.
Data set [6] has as its system NET. In words: [3H]Norepinephrine uptake inhibition in rat brain synaptosomes. It counts as biochemical. As to conditions: NE. How it is done: as §1, §2, §3, §4
Data set [7] concerns the target dopamine transporter (DAT) (Rattus norvegicus (Rat), UniProt P23977). In words: Competition radioligand binding, [3H]WIN35428, rat brain membranes. As to conditions: DA transporter. From the text:
(§5) Rat brain (Sprague Dawley, 200-250 g) synaptosomes were isolated from midbrain and hindbrain for serotonin transporter assays, striatum for dopamine transporter assays, and hippocampus plus overlying occipital cortex for norepinephrine transporter assays. Radioligands used were: [^3H]Citalopram 81.4 Ci/mmol (PerkinElmer NET1039250UC; Lot No. 2960876). [^3H]WIN35428 82.8 Ci/mmol (PerkinElmer NET1033250UC; Lot No. 2891473). [^3H]Nisoxetine 79.2 Ci/mmol (PerkinElmer NET1084250UC; Lot No. 2970324). Non-specific compounds used were: Citalopram (Tocris Bioscience 1427). JHW007 (Tocris Bioscience 4351). Nomifensine (Abcam ab146004). Test Compounds for the study were: racemic methylone HCl; (R)-methylone HCl; (S)-methylone HCl.
(§6) For membrane preparations, rat brains were dissected, tissue was added to ice-cold lysis buffer (50 mM Tris HCl; 5 mM MgCl2; 5 mM EDTA; protease inhibitor cocktail) and homogenized. The homogenate was centrifuged at 100×g for 2 minutes and the supernatant divided into polypropylene Eppendorf tubes. The supernatants were centrifuged at 17,000×g for 10 minutes at 4° C. to re-pellet the cell lysate. The pellet was resuspended in fresh wash buffer (50 mM Tris-HCl; 5 mM MgCl2; 5 mM EDTA) and centrifuged a third time at 17,000×g for 10 minutes at 4° C. The pellet was resuspended in wash buffer containing 10% sucrose as a cryoprotectant, divided into aliquots (0.3 mL) and stored at −80° C. A sample of the homogenate was analyzed for protein content using the MERCK® BCA assay. On the day of the assay, the membrane preparation was thawed and the pellet resuspended in final assay buffer.
(§7) Competition binding assays were carried out in 96-well polypropylene plates in a final volume of 250 μL per well. To each well was added 150 μL membranes, 50 μL of test compound, non-specific compound or buffer, and 50 μL radioligand solution in buffer. The plate was incubated at 30° C. for 90 minutes with gentle agitation. The incubation was stopped by vacuum filtration onto presoaked (wash buffer with PEI) GF/C filters using a 96-well FILTERMATE™ harvester, followed by 5 washes with ice-cold wash buffer. Filters were then dried under a warm air stream, sealed in polyethylene, scintillation cocktail added, and the radioactivity counted in a WALLAC® TriLux 1450 MicroBeta counter. For each concentration of drug, non-specific binding was subtracted from total binding to give specific binding. Data was fitted using the non-linear curve fitting routines in PRISM® (Graphpad Software Inc) to determine IC50. Ki was subsequently calculated using the ChengPrusoff equation.

Data set [8] concerns the target norepinephrine transporter (NET). Kind of data set: Competition radioligand binding, [3H]Nisoxetine, rat brain membranes. As to conditions: NE transporter.
Source text: as §5, §6, §7

In data set [9] the target is serotonin transporter (SERT) (Rattus norvegicus (Rat), UniProt P31652). In words: Competition radioligand binding, [3H]Citalopram, rat brain membranes. The following applies: 5-HT transporter.
Source text: as §5, §6, §7

Data set [10] deals with T2, SERT. Kind of data set: [3H]5-HT uptake inhibition in rat brain synaptosomes. The format is biochemical. The method, then:
as §1, §2, §3, §4

A further data set concerns mouse model of PTSD. As to conditions: 7.5 mg/kg, 30 minutes prior to extinction training; Young et al. 2015; cited from earlier work.
The conditions of data set [11]: self-administration, healthy volunteers; cited from earlier work.

Molecules are shown by their SMILES.

One may read the IC50 as the concentration needed to halve the response being measured. Higher therefore signals weaker potency in that assay. The EC50 is the concentration giving half of the maximal effect. As a reminder, the Ki is a dissociation constant, usually derived from enzyme kinetics or from competition with a known ligand. Regarding `CNC(C)C(=O)c1ccc2c(c1)OCO2` (racemic) [Racemic methylone], the IC50 against DAT [1] was determined as 1.43 µM; with NET [6], 0.355 µM; in data set [7], 7.11 µM; in data set [8] it was 3.1 µM; in data set [9], 12.3 µM; against SERT [10], 0.811 µM. In data set [2], the “Reduction of immobility compared to vehicle treated controls” value is ~100%. For the same molecule, the EC50 on SERT [3] amounted to 0.62 µM; at DAT [4], 4.79 µM; in the data set with NET [5], 0.33 µM. In the data set with cardiac ion channels, the “Effect on the cardiac ion channels tested” value is given as “do not directly inhibit the activity of cardiac channels”. In addition, the values for the Ki in data set [7] (Cheng-Prusoff), in [8] (Cheng-Prusoff) and in data set [9] (Cheng-Prusoff) were 3.53 µM, 1.46 µM and 7.44 µM, respectively.

For `CNC(C)Cc1ccc2c(c1)OCO2` (stereo not shown) [MDMA, 3,4-methylenedioxymethamphetamine, reference compound], in the data set with mouse model of PTSD, the “Reduced freezing compared to saline injected controls (extinction recall)” value is 35%. Moreover, the “Systolic and diastolic blood pressure” value in data set [11] is “significant increase”.
